Values of other authors in patent US20240307296A1, “SUBCUTANEOUS BIODEGRADABLE NALTREXONE IMPLANT AND ACCOMPANYING BEHAVIORAL PROGRAM FOR WEIGHT LOSS IN A PATIENT” (Biocorrx, priority 2017, published 2024).

Tested on: fasting insulin levels
Conditions: in vivo

Compound: O=C1CC[C@@]2(O)[C@H]3Cc4ccc(O)c5c4[C@@]2(CCN3CC2CC2)[C@H]1O5 [Naltrexone, N-Cyclopropylmethylnoroxymorphone]
- Lowering of fasting insulin levels: up to 40%
